# Test results: patent US20110027354A1, “ANTI-PA[…]” (priority 2008, published 2011)
# Key:
# [1] = tested on: mice; assay: Locomotor activity after repeated treatment with drug alone; format: in vivo; conditions: repeated treatment i.p./day×7, selegiline or MPPE 2.5 or 5.0 mg/kg, MA 0.5 or 1.0 mg/kg
# Experimental: Selegiline or […] was injected (2.5 or 5 mg/kg, i.p.) once a day for 7 consecutive days. Methamphetamine, a positive control, was also administered (0.5 or 1 mg/kg, i.p.) once a day for 7 days.
# Locomotor activity measured for 30 min one day after the last MPTP administration using an automated video-tracking system (Noldus Information Technology, Wagenin, The Netherlands). Eight test boxes (40×40×30 cm high) were operated simultaneously by an IBM computer. Animals were studied individually during locomotion in each test box, where they were adapted for 5 min before starting the experiment. […] The distance traveled in cm by the animals in horizontal locomotor activity was analyzed. Data were collected and analyzed between 09:00 and 17:00 h (Kim et al., 2001).
# [2] = tested on: mice; assay: Conditioned place preference (CPP); format: in vivo; conditions: selegiline or MPPE 2.5 or 5.0 mg/kg i.p., MA 0.5 or 1.0 mg/kg i.p.; vs. saline
# Experimental: For conditioned place preference (CPP) test, mice received an i.p. injection of saline just before entering the […] compartment. MA (0.5 or 1.0 mg/kg, i.p.), selegiline (2.5 or 5.0 mg/kg, i.p.), and MPPE (2.5 or 5.0 mg/kg, i.p.) dissolved in saline was administered immediately before the mice were placed in the white compartment. On day 1, the mice were pre-exposed to the test apparatus for 15 minutes. The guillotine style doors were raised and mice were allowed to move freely between the two compartments. On day 2, the time each mouse spent in each compartment was recorded for 15 minutes. On days 3, 5, 7, 9, 11, and 13, the mice were injected with each drug before being confined to the white compartment, the non-preferred side, for 40 minutes. On day 14, the guillotine doors were raised. The mice were initially placed in the tunnel and the time spent by the mice in the two compartments was recorded for 15 minutes. The scores were calculated from the differences in the time spent in the white compartment in the testing and pre-testing phases. Data were analyzed between 09:00 and 17:00 hours.
structure (smiles),measurement,setting,value
"CN[C@@H](C)Cc1ccccc1 [MA, methamphetamine]",locomotor patterns,[1],typical circling locomotor patterns
same,locomotor activities,[1]; vs. saline,significantly increased
same,conditioned place preference (CPP),[2],significantly increased compared with saline
